Biological target: T1, EGFR T790M/L858R/C797S (Homo sapiens, UniProt P00533, C797S/L858R/T790M)
T1 construct: expressed in transfected cells; host or cells: BaF3 (murine pro-B) cells stably transduced with pCDH lentiviral vector, PGK promoter
Assay: EGFR Degradation Assay (Cellular), FRET quantification of total EGFR
Assay type: cell-based
Conditions: BaF3 EGFR mutant cell line (EGFR T790M/L858R/C797S); 4-hour incubation; total EGFR FRET kit; top concentration 1 μM, 11 points; read-out: IC50 [nM] mutant EGFR degradation
Experimental: EGFR Degradation Assay (Cellular)
The BaF3 parental line was purchased from DSMZ and grown in RPMI media supplemented with 10% FBS and 10 ng/mL interleukin 3 (IL-3) (Thermo Fisher Scientific). EGFR mutants ([…]) were cloned into the pCDH lentiviral vector (SystemBio) under the control of a PGK promoter and confirmed by DNA sequencing. The resulting gene expression vector for each mutant was mixed with packaging vectors and cotransfected into 2×10E6 HEK293T cells (ATCC) in 10 mL of DMEM media to generate lentiviral particles according to the manufacturers protocol (Origene).
Three days post-transfection, the viral supernatant was harvested and filtered. In one well of a 12-well plate, 0.5 mL of viral supernatant was added to 2E6 Ba/F3 cells contained in 1.5 mL of RPMI media including 10% FBS, 10 ng/mL IL-3, and 5 μg/mL polybrene (Invitrogen). The plate was centrifuged at 2,000 rpm for 1 hour at room temperature and infected cells were kept in a tissue culture incubator overnight at 37° C. The cells were washed once in fresh BaF3 media and reseeded at 0.5E6 cells/well of a 12-well plate in media supplemented with 0.5 μg/mL puromycin. The cells were maintained in this media for 3 weeks. IL-3-independent, EGFR mutant transformed cells were routinely maintained in RPMI medium supplemented with 10% FBS.
RPMI 1640 no-phenol red medium and fetal bovine serum (FBS) were purchased from Gibco (Grand Island, N.Y., USA). EGFR total kit and EGFR phospho-Y1068 kit were purchased from Cisbio (Bedford, Mass., USA). BaF3 EGFR mutant cell lines (EGFR T790M/L858R/C797S) cell line was generated in house, according to the protocol reported above. Cell culture flasks and 384-well microplates were acquired from VWR (Radnor, Pa., USA).
EGFR degradation was determined based on quantification of FRET signal using EGFR total kit. The FRET signal detected correlates with total EGFR protein level in cells. Briefly, test compounds were added to the 384-well plate from a top concentration of 1 μM with 11 points, half log titration in quadruplicates. Then, BaF3 EGFR mutant cell lines (EGFR T790M/L858R/C797S) were added into 384-well plates at a cell density of 10000 cells per well. The plates were kept at 37° C. with 5% CO2 for 4 hours. After 4-hour incubation, 4× lysis buffer was added to the cells, and then microplate was agitated on plate shaker at 500 rpm for 30 minutes at room temperature. Next, total EGFR antibody solution was added to the cells and the cells were incubated for another 4 hours at room temperature. Finally, FRET signal was acquired on EnVision™ Multilabel Reader (PerkinElmer, Santa Clara, Calif., USA). The cells treated in the absence of the test compound were the negative control and lysis buffer with antibody solution only were the positive control.

T1 sequence (P00533 25-1210 T790M/C797S/L858R): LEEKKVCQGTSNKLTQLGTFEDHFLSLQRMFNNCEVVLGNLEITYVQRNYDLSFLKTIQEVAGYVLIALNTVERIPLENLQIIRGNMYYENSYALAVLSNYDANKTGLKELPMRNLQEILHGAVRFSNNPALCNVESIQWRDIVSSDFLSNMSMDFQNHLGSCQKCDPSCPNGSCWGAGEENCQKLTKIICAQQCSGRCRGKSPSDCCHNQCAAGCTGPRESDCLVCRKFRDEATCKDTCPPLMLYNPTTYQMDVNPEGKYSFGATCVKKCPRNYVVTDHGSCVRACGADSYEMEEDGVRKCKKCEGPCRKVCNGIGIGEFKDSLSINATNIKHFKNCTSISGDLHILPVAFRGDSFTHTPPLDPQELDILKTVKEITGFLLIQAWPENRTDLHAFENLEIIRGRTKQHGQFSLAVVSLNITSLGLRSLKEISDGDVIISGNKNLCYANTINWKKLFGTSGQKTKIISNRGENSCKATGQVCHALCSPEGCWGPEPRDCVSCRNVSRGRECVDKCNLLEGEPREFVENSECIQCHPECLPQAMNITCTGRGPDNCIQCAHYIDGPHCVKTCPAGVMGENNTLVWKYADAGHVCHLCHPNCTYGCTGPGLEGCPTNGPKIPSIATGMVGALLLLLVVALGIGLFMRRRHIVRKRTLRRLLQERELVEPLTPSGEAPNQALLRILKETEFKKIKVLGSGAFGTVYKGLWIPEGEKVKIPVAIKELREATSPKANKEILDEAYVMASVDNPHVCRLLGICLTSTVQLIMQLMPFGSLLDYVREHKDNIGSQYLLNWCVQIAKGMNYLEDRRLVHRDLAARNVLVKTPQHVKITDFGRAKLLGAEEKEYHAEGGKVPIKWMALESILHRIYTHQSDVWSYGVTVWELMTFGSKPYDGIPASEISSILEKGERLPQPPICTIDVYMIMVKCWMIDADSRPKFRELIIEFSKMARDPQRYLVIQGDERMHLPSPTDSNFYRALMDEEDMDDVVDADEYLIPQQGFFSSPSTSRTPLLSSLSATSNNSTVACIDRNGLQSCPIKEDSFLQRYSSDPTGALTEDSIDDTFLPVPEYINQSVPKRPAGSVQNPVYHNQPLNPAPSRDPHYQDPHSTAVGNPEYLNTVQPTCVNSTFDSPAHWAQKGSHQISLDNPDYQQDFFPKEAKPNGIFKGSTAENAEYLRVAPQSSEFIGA

| DC50 | SMILES |
| --- | --- |
| 73 nM | CO[C@H]1CCN(c2nccc(Nc3cc4c(cn3)c(C(=O)NC3CCN(CCCCC5CCN(c6ccc7c(c6)C(=O)N(C6CCC(=O)NC6=O)C7=O)CC5)CC3)cn4C(C)C)n2)C[C@H]1F (mixture of isomers) [Example 19, N-[1-[4-[1-[2-[(3RS)-2,6-Dioxo-3-piperidyl]-1,3-dioxo-isoindolin-5-yl]-4-piperidyl]butyl]-4-piperidyl]-6-[[2-[(3R,4S)(3S,4R)-3-fluoro-4-methoxy-1-piperidyl]pyrimidin-4-yl]amino]-1-isopropyl-pyrrolo[3,2-c]pyridine-3-carboxamide] |
| 26 nM | CO[C@H]1CCN(c2nccc(Nc3cc4c(cn3)c(C(=O)NC3CCN(CCCOC5CN(c6cccc7c6C(=O)N(C6CCC(=O)NC6=O)C7=O)C5)CC3)cn4C(C)C)n2)C[C@H]1F (mixture of isomers) [Example 22, N-[1-[3-[1-[2-[(3RS)-2,6-Dioxo-3-piperidyl]-1,3-dioxo-isoindolin-4-yl]azetidin-3-yl]oxypropyl]-4-piperidyl]-6-[[2-[(3R,4S)-3-fluoro-4-methoxy-l-piperidyl]pyrimidin-4-yl]amino]-1-isopropyl-pyrrolo[3,2-c]pyridine-3-carboxamide] |
| 26 nM | CO[C@H]1CCN(c2nccc(Nc3cc4c(cn3)c(C(=O)NC3CCN(CCCCCNc5cccc6c5C(=O)N(C5CCC(=O)NC5=O)C6=O)CC3)cn4C(C)C)n2)C[C@H]1F (mixture of isomers) [Example 9, N-[1-[5-[[2-[(3RS)-2,6-Dioxo-3-piperidyl]-1,3-dioxo-isoindolin-4-yl]amino]pentyl]-4-piperidyl]-6-[[2-[(3R,4S)-3-fluoro-4-methoxy-1-piperidyl]pyrimidin-4-yl]amino]-1-isopropyl-pyrrolo[3,2-c]pyridine-3-carboxamide] |
